The values below come from paper PMC9367672, “In vitro differences in toddalolactone metabolism in various species and its effect on cytochrome P450 expression” (Pharmaceutical Biology, 2022).

Data set [1] is described as follows: Enzyme kinetics of toddalolactone metabolism in mini pig liver microsomes (oxidative metabolism and glucuronidation). The class given is in vitro ADME. As to conditions: pig, Vmax/Km. As to the method:
(§1) The CYP reaction system (200 μL) consisted of 0.1 M potassium phosphate buffer (pH 7.4), an NADPH-generating system (1 mM NADPH, 10 mM G-6-P, 1 unit/mL G-6-PD, 4 mM MgCl2), and liver microsomes or recombinant human microsomes (supersomes). Each of the in vitro enzymatic assays using liver microsomes was linear with respect to incubation time and amount of protein. After a pre-incubation at 37 °C for 3 min, the reactions were initiated by adding NADP^+. After incubating for 60 min, the reactions were quenched by adding 200 μL of ice-cold acetonitrile. Samples were centrifuged at 18,000 g for 15 min at 4 °C and 10 μL of supernatant was analyzed using an HPLC system. NADPH or CYP enzyme sources were not used in the control group to ensure that the metabolic reactions were CYP- and NADPH-dependent. All incubation assays were completed in triplicate. The data are presented as mean ± standard deviation (SD).
(§2) In the UGT reaction system, liver microsomes were incubated in 200 μL of the reaction system containing 4 mM UDPGA, 5 mM MgCl2, 20 µg/mL alamethicin, and 50 mM Tris-HCl buffer (pH 7.4). After pre-incubation at 37 °C for 3 min, UDPGA was added to the mixture to initiate the reactions. The mixtures were incubated at 37 °C for 60 min, followed by the addition of 200 μL of cold methanol to terminate the reactions. After centrifugation at 18,000 g for 15 min, 10 μL of the supernatant was analyzed by HPLC.
(§3) The enzyme kinetics of toddalolactone in oxidative metabolism and glucuronidation were determined by incubating liver microsomes (0.2 mg/mL) or CYPs (15 nM) with different concentrations of toddalolactone (1–200 μM). The kinetic parameters including Km and Vmax were obtained by fitting the experimental data to the Michaelis–Menten equation (Equation (1)), biphasic kinetics equation (Equation (2)), or substrate inhibition equation (Equation (3)) (He et al. [2018]), and the results were graphically represented on Eadie–Hofstee plots. The in vitro intrinsic clearance (CLint) was calculated based on the Vmax/Km ratio. Metabolites were quantified using the standard curve for toddalolactone because of the absence of metabolite standards. All incubations were repeated in three independent experiments. Kinetic constants were expressed with mean ± SD: (1) V=Vmax×[S]/Km+[S] (2) V=Vmax1×[S]/Ks1+[S]+Vmax2×[S]/Ks2+[S] (3) V=Vmax×[S]/Ks+[S]+[S]^2/Ksi where v is the rate of reaction, Vmax is the estimated maximum velocity, [S] is the substrate concentration, and Km is the affinity constant of the substrate; Vmax1 and Vmax2 represent the estimated maximum velocity of the two metabolic phases; Ks1 and Ks2 represent the affinity constants for two metabolic phases; Ks and Ksi are the substrate affinity and inhibition constants, respectively.
(§4) The enzyme kinetics in oxidative metabolism and glucuronidation of toddalolactone were studied, and preliminary experiments were performed to ensure that metabolites were formed in the linear range of both reaction time and microsomal protein concentration. The metabolite with the largest peak area was used to calculate the kinetic parameter values (Km, Vmax and CLint). Based on the results of toddalolactone metabolism in different species, the kinetic parameter values in RLMs, DLMs, MLMs, HLMs, RAMs, MIMs, PLMs, CYP1A1 and CYP3A5 were calculated using P4, P4, P4, P4, P2, P2, P4, P4 and P4 data in oxidative metabolism, respectively. In the glucuronidation reaction, the kinetic parameter values in RLMs, MLMs, HLMs, RAMs and PLMs were calculated using P5, P6, P6, P6 and P5 data, respectively.

Another data set relates to PLMs. Described as above. The class given is in vitro ADME. The conditions noted are these: for V max: toddalolactone 1–200 μM. Here is the method: as §1, §2, §3, §4
Data set [2] is described as follows: Enzyme kinetics of toddalolactone metabolism in monkey liver microsomes (oxidative metabolism and glucuronidation). The format is in vitro ADME. The conditions noted are these: monkey, liver microsomes, pH 7.4, MLMs, Vmax/Km. As to the method: as §1, §2, §3, §4
Background: Liver microsomes are vesicles of endoplasmic reticulum, rich in cytochrome P450 enzymes.

A further data set relates to MLMs. Described as above. The class given is in vitro ADME. The conditions noted are these: MLMs; for V max: toddalolactone 1–200 μM. Here is the method: as §1, §2, §3, §4
Data set [3] concerns HLMs. As to the kind of experiment: Enzyme kinetics of toddalolactone metabolism in human liver microsomes (oxidative metabolism and glucuronidation). The class given is in vitro ADME. As to conditions: HLMs; for V max: toddalolactone 1–200 μM. Here is the method:
as §1, §2, §3, §4

Assay in data set [4]: as above
The format is in vitro ADME. The conditions noted are these: human, liver microsomes, pH 7.4, HLMs, Vmax/Km. Here is the method:
as §1, §2, §3, §4

Data set [5] relates to HLMs. Briefly: Prediction of in vivo hepatic clearance in humans from HLM kinetics. The class given is in vitro ADME, human. As to the method: The in vivo hepatic clearances in oxidative metabolism and glucuronidation of toddalolactone were calculated using Equations (4)–(6) (Li et al. [2008]): (4) CLint in vitro=∑i=1nVmax(Mi)/Km(Mi) (5) CLint in vivo=CLint in vitro⋅SF (6) CLH=QH⋅fu⋅CLint in vivo/QH+fu⋅CLint in vivo where SF is the milligrams of microsomal protein per gram of liver multiplied by the grams of liver weight; CLH is hepatic clearance; fu is the unbound fraction in the blood (the value of fu was set to 1 due to the absence of available data for toddalolactone); QH is the blood flow in the liver; and Mi is the metabolite of toddalolacone. The physiological parameters to calculate intrinsic clearance were as follows. The liver weight of dogs, rats and humans were 32, 40 and 25.7 g/kg body weight, respectively; the content of microsomal protein was 77.9, 44.8 and 48.8 mg/g of liver; and the blood flow in the liver was 30.9, 55.2 and 20.7 mL/(min ⋅ kg), respectively (Naritomi et al. [2001]).

Where [6] appears, read: P450-catalyzed oxidation, P4 formation.
Setting [7] is: glucuronide metabolism, P5 formation.
Setting [8] is: glucuronide metabolism, P6 formation.

The structures appear in SMILES notation.

With `COc1cc2oc(=O)ccc2c(OC)c1C[C@@H](O)C(C)(C)O` [toddalolactone], the microsomal CLint was determined as 0.69 µL/min/mg in data set [1] (liver microsomes, pH 7.4, PLMs, P450-catalyzed oxidation, P4 formation); 0.36 µL/min/mg in data set [1] (mini pig liver microsomes (PLMs), UGT reaction system, pH 7.4, glucuronide metabolism, P5 formation); 0.63 µL/min/mg in data set [2] (setting [6]); 1.21 µL/min/mg in data set [2] (setting [8]); 0.14 µL/min/mg in data set [4] (setting [6]); 0.75 µL/min/mg in data set [4] (setting [8]). For the same compound, the K m is on record as 135.36 ± 32.39 µM with PLMs (setting [6]); 93.28 ± 22.35 µM in the data set with PLMs (setting [7]); 255.67 ± 58.29 µM with MLMs (setting [6]); 154.51 ± 42.46 µM in the data set with MLMs (setting [8]); 244.63 ± 78.99 µM in the data set with HLMs [3] (setting [6]); 66.33 ± 20.46 µM in the data set with HLMs [3] (setting [8]). Also, the V max in the data set on PLMs (setting [6]) worked out at 94.24 ± 11.61 pmol/min/mg protein; with PLMs (setting [7]), 34.12 ± 3.62 pmol/min/mg protein; in the data set on MLMs (setting [6]), 161.4 ± 25.73 pmol/min/mg protein; in the data set on MLMs (setting [8]) it was 187.53 ± 27.77 pmol/min/mg protein; in the data set with HLMs [3] (setting [6]) it was 35.07 ± 7.16 pmol/min/mg protein; in the data set on HLMs [3] (setting [8]) it was 50.16 ± 8.75 pmol/min/mg protein. Further, the “CLH versus hepatic blood flow (QH)” value in the data set with HLMs [5] (HLMs) is on record as 8.68%. Besides, the “clearance class according to predicted CLH” value with HLMs [5] (humans) is “low-clearance (low-clearance drugs (<30% liver blood flow))”. In addition, the “in vivo hepatic clearance (CLH)” value in the data set on HLMs [5] (humans, predicted from kinetic parameters of P1–P6, fu set to 1) is recorded as 5.25 mL/(min/kg body weight).
